The record followed here is patent US20250255874A1, “Methods for Treating Immune Thrombocytopenia By Administering (R)-2-[3-[4-Amino-3-(2-Fluoro-4-Phenoxy-Phenyl)Pyrazolo[3,4-D]Pyrimidin-1-YL]Piperidine-1-Carbonyl]-4-Methyl-4-[4-(Oxetan-3-YL)Piperazin-1-YL]Pent-2-Enentrile” (Principia Biopharma Inc., priority 2022, published 2025).

For the experiment, the system named is spontaneous canine pemphigus foliaceus. The experiment can be described thus: spontaneous canine pemphigus foliaceus. The following applies: dog, in vivo.

The structures appear in SMILES notation.

As to `CC(C)(C=C(C#N)C(=O)N1CCC[C@@H](n2nc(-c3ccc(Oc4ccccc4)cc3F)c3c(N)ncnc32)C1)N1CCN(C2COC2)CC1` [rilzabrutinib, (R)-2-[3-[4-amino-3-(2-fluoro-4-phenoxy-phenyl)pyrazolo[3,4-d]pyrimidin-1-yl]piperidine-1-carbonyl]-4-methyl-4-[4-(oxetan-3-yl)piperazin-1-yl]pent-2-enenitrile], the anti-inflammatory effects result is “rapid and significant anti-inflammatory effects”.
